US10266544B2, “Aryl substituted aminomethyl spectinomycin analogs as antibacterial agents” (ST. JUDE CHILDREN'S RESEARCH HOSPITAL, INC., priority 2013, dated 2019)
Structures can show the parent of a compound that is named as a salt. Where two headings read alike, the source gives them in different places.

Legend:
Assay type in all cases: cell-based
Listeria monocytogenes = experiment: MIC determination (Table 6)
[1] = tested on: acinetobacter baumannii (ATCC 19606); experiment: MIC determination, microbroth dilution; settings: ATCC19606
[2] = tested on: Pseudomonas aeruginosa (PA01); experiment: MIC determination, microbroth dilution
E. coli K12 ΔtolC = experiment: microbe, parasite or virus in culture; settings: Escherichia coli, read-out: MIC E.c. Δtolc
[3] = tested on: Streptococcus pneumoniae (R6); experiment: MIC determination, microbroth dilution; settings: Streptococcus pneumoniae (R6); read-out: MIC S. pn.
[4] = tested on: Bacillus anthracis, Sterne 34F2; experiment: microbe, parasite or virus in culture; settings: STERNE34F2, read-out: MIC B.a.
[5] = tested on: Haemophilus influenza (ATCC 49247); experiment: microbe, parasite or virus in culture; settings: ATCC49247; Haemophilus influenza; 4 μg per disc; range of at least two experiments; read-out: Zone of inhibition H.i.
Moraxella catarrhalis = experiment: MIC determination (Table 6)
[6] = tested on: Neisseria gonorrhoeae (ATCC 49226); experiment: Disc diffusion assay; settings: ATCC49226, 4 μg per disc, read-out: Zone of inhibition N.g.
[7] = tested on: Staphylococcus aureus (ATCC 29213); experiment: MIC determination, microbroth dilution; settings: ATCC29213; Staphylococcus aureus (ATCC 29213); read-out: MIC S.a.
[8] = tested on: Legionella pneumophila (ATCC 33153); experiment: microbe, parasite or virus in culture; settings: ATCC33153, 72 h, read-out: Zone of inhibition L.p.
[9] = tested on: Neisseria meningitides (ATCC 13077); experiment: Disc diffusion assay; settings: ATCC13077, 4 μg per disc, read-out: Zone of inhibition N.m.
[10] = tested on: Klebsiella pneumoniae (ATCC 33495); experiment: MIC determination, microbroth dilution; settings: ATCC33495
[11] = tested on: Proteus mirabilis (ATCC 25933); experiment: MIC determination, microbroth dilution; settings: ATCC25933
[12] = tested on: MRSA, Staphylococcus aureus (NRS70); experiment: MIC determination, microbroth dilution; settings: Staphylococcus aureus (NRS70); read-out: MIC MRSA
[13] = tested on: M. tuberculosis clinical isolates; experiment: microbe, parasite or virus in culture; settings: Mycobacterium tuberculosis
[14] = tested on: Streptococcus pyogenes (ATCC 700294); experiment: MIC determination, microbroth dilution; settings: ATCC700294; Streptococcus pyogenes (ATCC 700294); read-out: MIC S. py.
[15] = tested on: Bacillus subtilis (ATCC 23857); experiment: MIC determination, microbroth dilution; settings: ATCC23857; Bacillus subtilis (ATCC 23857); read-out: MIC B.s.
[16] = tested on: Burkholderia cepacia (ATCC 25416); experiment: MIC determination, microbroth dilution; settings: Burkholderia cepacia
[17] = tested on: Escherichia coli (ATCC 700926); experiment: MIC determination, microbroth dilution; settings: ATCC700926; Escherichia coli (ATCC 700926); read-out: MIC E.c.
Procedure: MICs were determined using the microbroth dilution method according to Clinical Laboratory Standards Institute (CLSI; National, C. F. C. L. S., Methods for Dilution Antimicrobial Susceptibility Tests for Bacteria Grow aerobically-Seventh Edition: Approved Standard M7-A7, CLSI, Wayne, Pa., USA, 2008) and were read by visual inspection. Two fold serial dilutions of antibiotic in 100 μL of the appropriate broth media were first prepared in 96-well round bottom microtiter plates (Nalge Nunc International, Rochester, N.Y., USA). An equivalent volume (100 μL) of bacterial broth inocula containing approximately 10^5 bacterial cfu/mL was added to each well to give final concentrations of drug starting at 200 μg/mL and the plates were incubated aerobically at 37° C. M. tuberculosis microtiter plates were incubated for 7 days and all other strains were incubated overnight. After incubations, in all cases the MIC was recorded as the lowest concentration of drug that prevented bacterial growth.

Bacillus anthracis = experiment: microbe, parasite or virus in culture; settings: read-out: MIC B.a.
[18] = tested on: Proteus vulgaris (ATCC 33420); experiment: MIC determination, microbroth dilution; settings: ATCC33420
[19] = tested on: Stenotrophomonas maltophilia (ATCC 13637); experiment: MIC determination, microbroth dilution; settings: ATCC13637; Stenotrophomonas maltophilia (ATCC 13637); read-out: MIC S.m.
[20] = ATCC25416, read-out: MIC B.c., Burkholderia cepacia (ATCC 25416)
[21] = ATCC25416, read-out: MIC B.c., Burkholderia cepacia, Table 6

Row | Structure (SMILES) | MIC (Listeria monocytogenes) [µg/mL] | MIC [1] [µg/mL] | MIC [2] [µg/mL] | MIC (E. coli K12 ΔtolC) [µg/mL] | MIC [3] [µg/mL] | MIC [4] [µg/mL] | MIC (Moraxella catarrhalis) [µg/mL] | MIC [7] [µg/mL] | MIC [10] [µg/mL] | MIC [11] [µg/mL] | MIC [12] [µg/mL] | MIC ([13]; H37RV, read-out: MIC H37Rv) [µg/mL] | MIC ([13]; read-out: MIC TN022) [µg/mL] | MIC ([13]; read-out: MIC TN026) [µg/mL] | MIC [14] [µg/mL] | MIC [15] [µg/mL] | MIC [16, 20] [µg/mL] | MIC [16, 21] [µg/mL] | MIC [17] [µg/mL] | MIC (Bacillus anthracis) [µg/mL] | other results
1 | CN[C@@H]1[C@H](O)[C@H](NC)[C@H]2O[C@]3(O)[C@H](O[C@@H]2[C@H]1O)O[C@H](C)C[C@@]3(O)CNCCc1ccc(C(F)(F)F)cc1 [compound 58, 3′-(R)-3′[(4-trifluoromethyl)phenethylaminomethyl]dihydrospectinomycin Trihydrochloride] | 3.1 | > 200 | > 200 | 1.6 | 1.6 to 3.1 | 12.5 to 25 | 0.4 | 12.5 | > 200 | 200 | 50 to 100 | 3.1 | 3.1 | 6.3 | 1.6 to 3.1 | 6.3 | > 200 | > 200 | 6.3 to 12.5 | 12.5 to 25 | zone of inhibition at 4 µg/disc [5]: 19 mm; zone of inhibition at 4 µg/disc [6]: 19 mm; zone of inhibition at 4 µg/disc [8]: 26 mm; zone of inhibition at 4 µg/disc [9]: 16 mm; MIC [18]: 200 µg/mL
2 | CN[C@@H]1[C@H](O)[C@H](NC)[C@H]2O[C@]3(O)[C@H](O[C@@H]2[C@H]1O)O[C@H](C)C[C@@]3(O)CNCCc1cccnc1 [compound 59, 3′-(R)-3′-[((2-(pyridin-3-yl)ethyl)aminomethyl]dihydrospectinomycintetrahydrobromide] | 12.5 | > 200 |  |  |  | 50 | 3.1 | 100 | 100 |  | > 200 | 6.3 | 6.3 | 6.3 |  | 12.5 to 25 | > 200 | > 200 |  | 50 | 
3 | CN[C@@H]1[C@H](O)[C@H](NC)[C@H]2O[C@]3(O)[C@H](O[C@@H]2[C@H]1O)O[C@H](C)C[C@@]3(O)CNCCc1cnccn1 [compound 60, 3′-(R)-3′-[((2-(pyrazin-2-yl)ethyl)aminomethyl]dihydrospectinomycintetrahydrobromide] | 25 | > 200 | > 200 | 50 | 25 | 100 | 6.3 | 200 | 100 to 200 | > 200 | > 200 | 3.1 | 6.3 | 6.3 | 50 | 50 to 100 | > 200 | > 200 | 100 | 100 | MIC [19]: 25 µg/mL; MIC [18]: > 200 µg/mL
4 | CN[C@@H]1[C@H](O)[C@H](NC)[C@H]2O[C@]3(O)[C@H](O[C@@H]2[C@H]1O)O[C@H](C)C[C@@]3(O)CNCCc1ccncc1 [compound 63, 3′-(R)-3′-[((2-(pyridin-4-yl)ethyl)aminomethyl]dihydrospectinomycintetrahydrobromide] | 100 | > 200 |  |  |  | > 200 | 12.5 | > 200 | > 200 |  | > 200 | 25 | 25 | 25 |  |  | > 200 | > 200 |  | > 200 | 
